Patent EP4417602A1, “SUBSTITUTED PYRAZOLE CARBOXAMIDES, SALTS THEREOF AND THEIR USE AS HERBICIDALLY ACTIVE SUBSTANCES” (Bayer AG, priority 2023, dated 2024)

How the values were obtained:
[1] = test system: ALOMY; experiment: A. Herbicidal pre-emergence action on harmful plants (Tables A); format: in vivo, Alopecurus myosuroides
In short: (§1)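 Values are visual percent damage relative to untreated controls, scored ca. 3 weeks after the compound was sprayed on the covering soil of sown pots (sandy loam) at rates up to 1280 g/ha, formulated as WP or EC with 0.5% additive.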

[2] = test system: ABUTH; experiment: B. Herbicidal post-emergence action on harmful plants (Tables B); format: in vivo, Abutilon theophrasti; details: application rate 1280 g/ha; Table B1a
Protocol: (§2) Seeds of mono- and dicotyledonous weed plants were placed in plastic pots in sandy loam soil (doubly sown with in each case one species of mono- or dicotyledonous weed plants per pot), covered with soil and cultivated in a greenhouse under controlled growth conditions. 2 to 3 weeks after sowing, the test plants were treated at the one-leaf stage. The compounds of the invention, formulated in the form of wettable powders (WP) or as emulsion concentrates (EC), were applied onto the green parts of the plants as aqueous suspension or emulsion with addition of 0.5% additive at a water application rate of 600 liters per hectare (converted). After the test plants had been kept in the greenhouse under optimum growth conditions for about 3 weeks, the activity of the preparations was rated visually in comparison to untreated controls. For example, 100% activity = the plants have died, 0% activity = like control plants. Tables B1 to B12, below, show the effects of selected compounds of the general formula (I) according to table 1 on various harmful plants and an application rate corresponding to 1280 g/ha or below obtained by the experimental procedure mentioned above. Table B1a: post-emergence activity at 1280g/ha against ABUTH in %

[3] = test system: ECHCG; experiment: as above; format: in vivo, Echinochloa crus-galli; details: application rate 1280 g/ha; Table B2a
Protocol: as §2

[4] = test system: POAAN; experiment: A. Herbicidal pre-emergence action on harmful plants (Tables A); format: in vivo, Poa annua
In short: as §1

[5] = test system: ALOMY; experiment: B. Herbicidal post-emergence action on harmful plants (Tables B); format: in vivo, Alopecurus myosuroides; details: application rate 1280 g/ha; Table B9a
Protocol: as §2

[6] = test system: STEME; experiment: A. Herbicidal pre-emergence action on harmful plants (Tables A); format: in vivo, Stellaria media; details: visual grading after ca. 3 weeks vs untreated controls, 100% = plants have died off, 0% = as control plants
In short: as §1

[7] = test system: DIGSA; experiment: as above; format: in vivo, Digitaria sanguinalis
In short: as §1

[8] = test system: VERPE; experiment: B. Herbicidal post-emergence action on harmful plants (Tables B); format: in vivo, Veronica persica
Protocol: as §2

[9] = test system: STEME; experiment: as above; format: in vivo, Stellaria media; details: application rate 1280 g/ha; Table B6
Protocol: as §2

[10] = test system: SETVI; experiment: A. Herbicidal pre-emergence action on harmful plants (Tables A); format: in vivo, Setaria viridis; details: visual grading after ca. 3 weeks vs untreated controls, 100% = plants have died off, 0% = as control plants
In short: as §1

[11] = test system: ECHCG; experiment: as above; format: in vivo, Echinochloa crus-galli; details: visual grading after ca. 3 weeks vs untreated controls, 100% = plants have died off, 0% = as control plants
In short: as §1

[12] = test system: AMARE; experiment: as above; format: in vivo, Amaranthus retroflexus
Description: Seeds of mono- and dicotyledonous weed plants were sown in plastic pots (double sowings with one species of mono- and one species of dicotyledonous weed plants per pot), in sandy loam, and covered with soil. The compounds according to the invention, formulated in the form of wettable powders (WP) or as emulsifiable concentrates (EC), were applied to the surface of the covering soil as aqueous suspension or emulsion, with the addition of 0.5% of an additive, at an application rate of 6001 of water per hectare (converted). Following treatment, the pots were placed in a greenhouse and kept under optimum growth conditions for the test plants. The visual grading of the damage to the test plants was carried out after ca. 3 weeks in comparison to untreated controls (herbicidal effect in percent (%): 100% effect = plants have died off, 0% effect = as control plants). Tables A1 to A12, below, show the effects of selected compounds of the general formula (I) according to table 1 on various harmful plants and an application rate corresponding to 1280 g/ha or below obtained by the experimental procedure mentioned above. Table A1: pre-emergence activity at 1280g/ha against ABUTH in %

[13] = test system: LOLRI; experiment: as above; format: in vivo, Lolium rigidum; details: visual grading after ca. 3 weeks vs untreated controls, 100% = plants have died off, 0% = as control plants
In short: as §1

[14] = test system: POAAN; experiment: B. Herbicidal post-emergence action on harmful plants (Tables B); format: in vivo, Poa annua
In short: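 Greenhouse weeds grown in sandy loam were sprayed post-emergence at the one-leaf stage, 2-3 weeks after sowing. Compounds were applied as WP or EC in water with 0.5% additive at 600 L/ha, at 1280 g/ha or below. Visual damage was rated after about 3 weeks versus untreated plants (0-100%).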

[15] = test system: DIGSA; experiment: as above; format: in vivo, Digitaria sanguinalis; details: application rate 1280 g/ha; Table B12a
Protocol: as §2

[16] = test system: MATIN; experiment: A. Herbicidal pre-emergence action on harmful plants (Tables A); format: in vivo, Matricaria inodora; details: visual grading after ca. 3 weeks vs untreated controls, 100% = plants have died off, 0% = as control plants
In short: as §1

[17] = test system: MATIN; experiment: B. Herbicidal post-emergence action on harmful plants (Tables B); format: in vivo, Matricaria inodora; details: application rate 1280 g/ha; Table B4a
Protocol: as §2

[18] = test system: SETVI; experiment: as above; format: in vivo, Setaria viridis; details: application rate 1280 g/ha; Table B5
Protocol: as §2

[19] = application rate 1280 g/ha, Table A9a
[20] = application rate 320 g/ha, Table A7b
[21] = application rate 1280 g/ha, visual grading after ca. 3 weeks vs untreated controls, 100% = plants have died off, 0% = as control plants
[22] = application rate 1280 g/ha, Table A12a
[23] = application rate 1280 g/ha, Table B11a
[24] = application rate 80 g/ha, Table A7c
[25] = application rate 1280 g/ha, Table B7a
[26] = application rate 80 g/ha, Table A12c
[27] = application rate 320 g/ha, Table A12b

SMILES	pre-emergence activity against ALOMY [1, 19] [%]	post-emergence activity against ECHCG [3] [%]	pre-emergence activity against POAAN [4, 20] [%]	pre-emergence activity against POAAN [4, 21] [%]	pre-emergence activity against STEME ([6]; application rate 1280 g/ha) [%]	pre-emergence activity against DIGSA [7, 22] [%]	pre-emergence activity against SETVI ([10]; application rate 320 g/ha) [%]	pre-emergence activity against SETVI ([10]; application rate 1280 g/ha) [%]	pre-emergence activity against ECHCG ([11]; application rate 320 g/ha) [%]	pre-emergence activity against ECHCG ([11]; application rate 1280 g/ha) [%]	pre-emergence activity against POAAN [4, 24] [%]	pre-emergence activity against LOLRI ([13]; application rate 320 g/ha) [%]	pre-emergence activity against LOLRI ([13]; application rate 1280 g/ha) [%]	pre-emergence activity against STEME ([6]; application rate 320 g/ha) [%]	post-emergence activity against POAAN [14, 25] [%]	pre-emergence activity against DIGSA [7, 27] [%]	pre-emergence activity against MATIN ([16]; application rate 320 g/ha) [%]	pre-emergence activity against MATIN ([16]; application rate 1280 g/ha) [%]	post-emergence activity against MATIN [17] [%]	post-emergence activity against SETVI [18] [%]	further results
Cn1cc(C(=O)N2CCCC2Cc2cc(F)ccc2F)c(COc2ccccc2)n1 (racemic) [Example I-010]	100	90	90	100	90	90	–	–	–	–	–	–	–	–	–	–	–	–	–	–	post-emergence activity against ABUTH [2]: 90%; post-emergence activity against ALOMY [5]: 90%; post-emergence activity against VERPE [8, 23]: 90%
COCc1nn(C)cc1C(=O)N1CCCC1Cc1ccccc1C (single isomer, unassigned) [Example I-084]	90	90	100	100	90	90	90	100	90	90	100	90	100	90	100	90	90	90	90	–	post-emergence activity against STEME [9]: 90%; pre-emergence activity against SETVI ([10]; application rate 80 g/ha): 90%; post-emergence activity against ABUTH [2]: 90%; pre-emergence activity against ECHCG ([11]; application rate 80 g/ha): 90%; pre-emergence activity against AMARE ([12]; application rate 320 g/ha, Table A8b): 90%; pre-emergence activity against AMARE [12, 21]: 90%; post-emergence activity against POAAN ([14]; application rate 320 g/ha, Table B7b): 100%; pre-emergence activity against DIGSA [7, 26]: 90%; post-emergence activity against DIGSA [15]: 90%; pre-emergence activity against MATIN ([16]; application rate 80 g/ha): 90%; post-emergence activity against VERPE ([8]; application rate 320 g/ha, Table B11b): 90%; post-emergence activity against VERPE [8, 23]: 90%
COCc1nn(C)cc1C(=O)N1CCCC1Cc1cccc(F)c1F (single isomer, unassigned) [Example I-088]	100	–	100	100	90	100	100	100	90	100	90	100	100	90	90	100	90	90	90	90	pre-emergence activity against ALOMY ([1]; application rate 320 g/ha, Table A9b): 90%; pre-emergence activity against SETVI ([10]; application rate 80 g/ha): 90%; pre-emergence activity against ECHCG ([11]; application rate 80 g/ha): 90%; pre-emergence activity against LOLRI ([13]; application rate 80 g/ha): 90%; pre-emergence activity against STEME ([6]; application rate 80 g/ha): 90%; pre-emergence activity against DIGSA [7, 26]: 100%; post-emergence activity against DIGSA [15]: 90%; pre-emergence activity against MATIN ([16]; application rate 80 g/ha): 90%
COCc1nn(C)cc1C(=O)N1CCCC1C(C)c1ccccc1F (centres unmarked) [Example I-021]	90	90	100	100	–	100	100	100	–	100	–	100	100	–	90	90	–	90	90	90	–
COCc1nn(C)cc1C(=O)N1CCCC1C(O)c1ccccc1F (single isomer, unassigned) [Example I-054]	–	–	90	100	90	100	90	90	90	100	90	–	90	90	90	90	90	90	–	90	–
